The term pEC50 denotes the negative decadic logarithm of the EC50, by convention in mol/L. The low end stands for a large EC50, the high end for a small EC50.

In assay [1] the target is T1, human CYP11B2 (Homo sapiens, UniProt P19099).
T1 construct: expressed in transfected cells
T1 sequence (P19099 25-503): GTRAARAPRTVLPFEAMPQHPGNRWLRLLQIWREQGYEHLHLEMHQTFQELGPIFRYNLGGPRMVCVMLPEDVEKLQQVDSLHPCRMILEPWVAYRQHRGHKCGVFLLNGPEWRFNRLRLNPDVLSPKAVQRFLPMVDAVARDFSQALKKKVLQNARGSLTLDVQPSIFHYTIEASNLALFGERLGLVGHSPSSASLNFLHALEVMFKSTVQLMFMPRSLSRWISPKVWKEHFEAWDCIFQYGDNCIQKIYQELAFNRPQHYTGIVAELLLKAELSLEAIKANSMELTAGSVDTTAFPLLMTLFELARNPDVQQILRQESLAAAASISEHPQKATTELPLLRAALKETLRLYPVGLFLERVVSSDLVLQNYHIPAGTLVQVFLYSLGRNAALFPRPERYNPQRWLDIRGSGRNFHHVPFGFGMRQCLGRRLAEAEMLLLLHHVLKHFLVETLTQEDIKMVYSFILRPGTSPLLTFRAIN
The assay can be described thus: G-402 cellular enzyme assay, human CYP11B2 (aldosterone release, HTRF). The assay is classed as cell-based. To be noted: G-402 cells expressing human CYP11B2; 1 μM Deoxycorticosterone; 16 h. The text has this:
(§1) Herein we identified the use of the G-402 cell line as a host cell to ectopically express (transiently or stably) enzymes of the CYP11 family. Specifically we developed stable G-402 cells expressing ectopically human CYP11B1, human CYP11B2, human CYP11A1, cynomolgus CYP11B1 or cynomolgus CYP11B2 enzyme activity. Importantly, the identified cell line G-402 expresses co-factors (adrenodoxin and adrenodoxin reductase) important for the activity of the CYP11 family, and no relevant enzyme activity of the CYP11 family (in comparison to H295R cells) was detected in these cells. Therefore the G-402 cell line is uniquely suited as a host cell for the ectopic expression of enzymes from the CYP11 family.
(§2) G-402 cells can be obtained from ATCC(CRL-1440) and were originally derived from a renal leiomyoblastoma.
(§3) The expression plasmids contains the ORF for either human/cyno CYP11B1 or CYP11B2 under the control of a suitable promoter (CMV-promoter) and a suitable resistance marker (neomycin). Using standard techniques the expression plasmid is transfected into G-402 cells and these cells are then selected for expressing the given resistance markers. Individual cell-clones are then selected and assessed for displaying the desired enzymatic activity using 11-Deoxycorticosterone (Cyp11B2) or 11-Deoxycortisol (Cyp11B1) as a substrate.
(§4) G-402 cells expressing CYP11 constructs were established as described above and maintained in McCoy's 5a Medium Modified, ATCC Catalog No. 30-2007 containing 10% FCS and 400 μg/ml G418 (Geneticin) at 37° C. under an atmosphere of 5% CO2/95% air. Cellular enzyme assays were performed in DMEM/F12 medium containing 2.5% charcoal treated FCS and appropriate concentration of substrate (0.3-10 uM 11-Deoxycorticosterone, 11-Deoxycortisol or Corticosterone). For assaying enzymatic activity, cells were plated onto 96 well plates and incubated for 16 h. An aliquot of the supernatant is then transferred and analyzed for the concentration of the expected product (Aldosterone for CYP11B2; Cortisol for CYP11B1). The concentrations of these steroids can be determined using HTRF assays from CisBio analyzing either Aldosterone or Cortisol.
(§5) Inhibition of the release of produced steroids can be used as a measure of the respective enzyme inhibition by test compounds added during the cellular enzyme assay. The dose dependent inhibition of enzymatic activity by a compound is calculated by means of plotting added inhibitor concentrations (x-axes) vs. measured steroid/product level (y-axes). The inhibition is then calculated by fitting the following 4-parameter sigmoidal function (Morgan-Mercer-Flodin (MMF) model) to the raw data points using the least squares method:
(§6) [formula] wherein A is the maximum y value, B is the EC50 factor determined using XLFit, C is the minimum y value and D is the slope value.
(§7) EC50 values for compounds claimed herein were tested with the G402-based assay system described. Cyp11B2 enzyme activity was tested in presence of 1 μM Deoxycorticosterone and variable amounts of inhibitors; Cyp11B1 enzyme activity was tested in presence of 1 μM Deoxycortisol and variable amounts of inhibitors.

Assay [2] addresses T2, human CYP11B1 (Homo sapiens, UniProt P15538).
T2 construct: expressed in transfected cells
T2 sequence (P15538 25-503): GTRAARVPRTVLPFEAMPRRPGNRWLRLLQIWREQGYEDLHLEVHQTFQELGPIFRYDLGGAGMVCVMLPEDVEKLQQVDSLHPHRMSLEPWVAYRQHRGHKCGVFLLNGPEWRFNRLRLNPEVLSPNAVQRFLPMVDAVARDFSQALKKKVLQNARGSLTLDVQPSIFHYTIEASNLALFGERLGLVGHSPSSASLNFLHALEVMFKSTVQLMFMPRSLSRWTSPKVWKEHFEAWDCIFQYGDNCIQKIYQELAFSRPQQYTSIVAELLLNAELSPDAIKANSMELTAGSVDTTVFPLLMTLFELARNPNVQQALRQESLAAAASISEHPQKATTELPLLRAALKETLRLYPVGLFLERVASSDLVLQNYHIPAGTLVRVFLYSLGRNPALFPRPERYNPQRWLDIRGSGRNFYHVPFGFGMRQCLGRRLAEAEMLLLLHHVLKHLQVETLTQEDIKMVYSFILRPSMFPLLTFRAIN
The assay can be described thus: G-402 cellular enzyme assay, human CYP11B1 (cortisol release, HTRF). The format is cell-based. To be noted: G-402 cells expressing human CYP11B1; 1 μM Deoxycortisol; 16 h.
Source text: as §1, §2, §3, §4, §5, §6, §7
A general note: Time-resolved FRET reads energy transfer from a long-lived donor to a nearby acceptor.

Structures are written as SMILES. pEC50: −log10 of the molar value.

Consider `N#Cc1ccc(C(=O)c2cncn2CC(F)(F)F)cc1` [Example 20, 4-[3-(2,2,2-Trifluoro-ethyl)-3H-imidazole-4-carbonyl]-benzonitrile], for which the pEC50 is 7.63 in assay [1] and 6.72 in assay [2].
As to `Cn1cncc1C(=O)c1ccc(Cl)c(Cl)c1` [Example 3, (3,4-Dichloro-phenyl)-(3-methyl-3H-imidazol-4-yl)-methanone], the figures for the negative-log EC50 (pEC50) in assay [1] and in assay [2] were 8.31 and 6.78, respectively.
Regarding `N#Cc1cccc(C(=O)c2cncn2C2CC2)c1` [Example 58, 3-(3-Cyclopropyl-3H-imidazole-4-carbonyl)-benzonitrile], the pEC50 was 7.06 in assay [1] and 6.05 in assay [2].
On the same counts, the results for `CN1C(=O)CCc2cc(C(=O)c3cncn3C)ccc21` [Example 25, 1-Methyl-6-(3-methyl-3H-imidazole-4-carbonyl)-3,4-dihydro-1H-quinolin-2-one] are 7.11 and 5.10.
Take `Cn1cncc1C(=O)c1ccc(F)c(C#N)c1` [Example 45, 2-Fluoro-5-(3-methyl-3H-imidazole-4-carbonyl)-benzonitrile]: the pEC50 in assay [1] was 6.24; in assay [2], 4.95.
Turning to `COc1cc(C(=O)c2cncn2C(C)C)ccc1SC(F)(F)F` [Example 81, (3-Isopropyl-3H-imidazol-4-yl)-(3-methoxy-4-trifluoromethylsulfanyl-phenyl)-methanone], the pEC50 in assay [1] is 7.80; in assay [2], 6.70.
`CCn1cncc1C(=O)c1ccc(N(C)C=O)cc1` [Example 89, N-[4-(3-Ethyl-3H-imidazole-4-carbonyl)-phenyl]-N-methyl-formamide]: the values for the pEC50 in assay [1] and in assay [2] were 7.53 and 6.13, respectively.
Turning to `CC(C)n1cncc1C(=O)c1ccc(Cl)cc1` [Example 13, (4-Chloro-phenyl)-(3-isopropyl-3H-imidazol-4-yl)-methanone], the values for the negative logarithm of the EC50 (pEC50) in assay [1] and in assay [2] were 8.68 and 8.25, respectively.
Regarding `COc1cc(C(=O)c2cncn2C)ccc1SC(F)(F)F` [Example 79, (3-Methoxy-4-trifluoromethylsulfanyl-phenyl)-(3-methyl-3H-imidazol-4-yl)-methanone], the pEC50 in assay [1] was 7.83; in assay [2], 5.80.
The like results for `O=C(c1ccc(Cl)cc1)c1cncn1-c1ccc(Cl)cc1` [Example 90, (4-Chloro-phenyl)-[3-(4-chloro-phenyl)-3H-imidazol-4-yl]-methanone] were, in that order, 8.59 and 5.44.
On the same counts, the results for `CNc1ccc(C(=O)c2cncn2C)cc1` [Example 86, (4-Methylamino-phenyl)-(3-methyl-3H-imidazol-4-yl)-methanone] are 5.79 and 5.43.
On to `Cn1cncc1C(=O)c1ccc2sccc2c1` [Example 44, Benzo[b]thiophen-5-yl-(3-methyl-3H-imidazol-4-yl)-methanone], for which the figures for the pEC50 in assay [1] and in assay [2] were 7.39 and 5.97, respectively.
On the same counts, the results for `Cn1cncc1C(=O)c1cccc(C#N)c1` [Example 21, 3-(3-Methyl-3H-imidazole-4-carbonyl)-benzonitrile] are 6.23 and 5.06.
Consider `C#Cc1ccc(C(=O)c2cncn2C)cc1` [Example 29, (4-Ethynyl-phenyl)-(3-methyl-3H-imidazol-4-yl)-methanone], for which the pEC50 in assay [1] was 7.69; in assay [2] it was 6.59.
Regarding `CC(C)n1cncc1C(=O)c1ccc(C#N)cc1` [Example 6, 4-(3-Isopropyl-3H-imidazole-4-carbonyl)-benzonitrile], the pEC50 in assay [1] was 9.10; in assay [2] it was 8.35.
Turning to `Cn1cncc1C(=O)c1ccc(Cl)cc1Cl` [Example 11, (2,4-Dichloro-phenyl)-(3-methyl-3H-imidazol-4-yl)-methanone], the pEC50 in assay [1] was 6.67; in assay [2] it was 5.74.
Consider `N#Cc1ccc(-n2cncc2C(=O)c2ccc(Cl)c(Cl)c2)cc1Cl` [Example 78, 2-Chloro-4-[5-(3,4-dichloro-benzoyl)-imidazol-1-yl]-benzonitrile], for which the negative-log EC50 (pEC50) in assay [1] is 8.43; in assay [2] it was 6.84.
On the same counts, the results for `CC(C)n1cncc1C(=O)c1ccc(Cl)c(Cl)c1` [Example 14, (3,4-Dichloro-phenyl)-(3-isopropyl-3H-imidazol-4-yl)-methanone] are 9.30 and 8.74.
Take `CSc1ccc(C(=O)c2cncn2C)cc1` [Example 43, (3-Methyl-3H-imidazol-4-yl)-(4-methylsulfanyl-phenyl)-methanone]: the pEC50 in assay [1] is 7.55; in assay [2], 5.81.
Consider `CCSc1ccc(C(=O)c2cncn2C)cc1` [Example 51, (4-Ethylsulfanyl-phenyl)-(3-methyl-3H-imidazol-4-yl)-methanone], for which the results for the pEC50 in assay [1] and in assay [2] were 6.99 and 5.49, respectively.
As for `O=C(c1ccc(Cl)c(F)c1)c1cncn1C1CC1` [Example 40, (4-Chloro-3-fluoro-phenyl)-(3-cyclopropyl-3H-imidazol-4-yl)-methanone], the negative-log EC50 (pEC50) in assay [1] is 8.64; in assay [2], 7.83.
In the case of `CCC(CC)n1cncc1C(=O)c1cccc(C#N)c1` [Example 83, 3-[3-(1-Ethyl-propyl)-3H-imidazole-4-carbonyl]-benzonitrile], the values for the pEC50 in assay [1] and in assay [2] were 8.24 and 7.24, respectively.
For `CCSc1ccc(C(=O)c2cncn2C2CC2)cc1` [Example 70, (3-Cyclopropyl-3H-imidazol-4-yl)-(4-ethylsulfanyl-phenyl)-methanone], the pEC50 was 7.64 in assay [1] and 6.44 in assay [2].
On the same counts, the results for `CCC(CC)n1cncc1C(=O)c1ccc(SC(F)(F)F)cc1` [Example 76, [3-(1-Ethyl-propyl)-3H-imidazol-4-yl]-(4-trifluoromethylsulfanyl-phenyl)-methanone] are 7.37 and 6.58.
Take `CCn1cncc1C(=O)c1ccc(F)c(C#N)c1` [Example 63, 5-(3-Ethyl-3H-imidazole-4-carbonyl)-2-fluoro-benzonitrile]: the pEC50 is 6.47 in assay [1] and 5.46 in assay [2].
On the same counts, the results for `CCn1cncc1C(=O)c1ccc(C#N)c(Cl)c1` [Example 46, 2-Chloro-4-(3-ethyl-3H-imidazole-4-carbonyl)-benzonitrile] are 8.64 and 7.60.
Take `CC(C)n1cncc1C(=O)c1ccc(Cl)c(F)c1` [Example 39, (4-Chloro-3-fluoro-phenyl)-(3-isopropyl-3H-imidazol-4-yl)-methanone]: the values for the pEC50 in assay [1] and in assay [2] were 9.15 and 8.48, respectively.

For the origin of these results see US9464058B2 (Hoffmann-La Roche Inc., priority 2012, dated 2016).
